Results published in patent publication US10941158B2, “Pyrazole ACC inhibitors and uses thereof” (Gilead Apollo, LLC, priority 2015, dated 2021).
≈ marks a conversion by molar mass, not a printed value. Where two headings read alike, the source gives them in different places.

Tests used:
human (hACC2) ACC2 = human (hACC2) ACC2 (Homo sapiens, UniProt O00763); experiment: In vitro Acetyl-CoA Carboxylase (ACC) inhibition assay (ADP-Glo), hACC2; format: biochemical
Description: The detailed procedure is as follows. […] 10 μL ADP glo reagent was added. […] 20 μL kinase detection reagent was added.
“NA” stands for “not assayed.”

C. albicans ATCC 90028 = experiment: Anti-Fungal (Candida) Activity Assay, broth microtiter MIC; format: cell-based; details: read-out: MIC C. albicans ATCC 90028
Summary of the method: (§1)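 In CLSI M27-A3 microtiter plates, yeast from overnight agar culture is inoculated in RPMI 1640–MOPS at a standard-curve density. The MIC is the endpoint scored visually against growth control at 48 h.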

C. krusei ATCC 6258 = experiment: as above; format: cell-based; details: Pichia kudriavzevii, read-out: MIC C. krusei ATCC 6258
Summary of the method: as §1

[1] = system: C. parapsilosis ATCC 22019; experiment: as above; format: cell-based; details: Lodderomyces parapsilosis, read-out: MIC C. parapsilosis ATCC 22019
Summary of the method: as §1

Botrtyis cinerea (Bc) = experiment: Growth inhibition assay of fungal pathogens; format: cell-based; details: 48 h, read-out: Concentration at 90% Inhibition Bc
Summary of the method: (§2)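 Percent growth inhibition was derived from 48 h OD600 and visual scores relative to 2% DMSO, with blank background subtraction. Fungi were grown from spores in 17% V8 liquid medium, R. solani from 1.5 mm plugs in ¼ PDB, with compound at final 50/10/2 or 2/0.4/0.08 ppm.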

[2] = system: Collectotrichum graminicola (Cg); experiment: Growth inhibition assay of fungal pathogens; format: cell-based; details: 48 h, read-out: Concentration at 90% Inhibition Cg
Summary of the method: (§3)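 Compounds in DMSO tested at final 50, 10, 2 ppm or 2, 0.4, 0.08 ppm. Spores in 17% V8 medium, or 1.5 mm mycelial plugs in ¼ PDB for R. solani, incubated with compound. OD600 and visual ratings at 48 h versus 2% DMSO control gave percent growth inhibition.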

Diplodia maydis (Dm) = experiment: Growth inhibition assay of fungal pathogens; format: cell-based; details: Stenocarpella maydis, 48 h, read-out: Concentration at 90% Inhibition Dm
Summary of the method: as §2

[3] = system: Fusarium moniliforme (Fm); experiment: Growth inhibition assay of fungal pathogens; format: cell-based; details: for IC90: Fusarium verticillioides, 48 h, read-out: Concentration at 90% Inhibition Fm
Summary of the method: as §2

[4] = system: Fusarium virguliforme (Fv); experiment: Growth inhibition assay of fungal pathogens; format: cell-based; details: 48 h
Summary of the method: as §3

[5] = system: Phytophthora capsici (Pc); experiment: Growth inhibition assay of fungal pathogens; format: cell-based; details: for IC90: Phytophthora capsici, read-out: Concentration at 90% Inhibition Pc
Summary of the method: as §3

Rhizoctonia solani (Rs) = experiment: Growth inhibition assay of fungal pathogens; format: cell-based; details: 48 h, read-out: Concentration at 90% Inhibition Rs
Summary of the method: as §2

Septoria tritici (St) = experiment: Growth inhibition assay of fungal pathogens; format: cell-based; details: for IC90: Zymoseptoria tritici, read-out: Concentration at 90% Inhibition St
Summary of the method: as §3

[6] = ATCC90028, 3 replicates, MIC recorded at 48 h
[7] = ATCC6258, 3 replicates, MIC recorded at 48 h
[8] = ATCC22019, 3 replicates, MIC recorded at 48 h
[9] = Table 4a, 48 hours, read-out: Concentration at 90% Inhibition Fv
[10] = Table 4b, 48 hours, read-out: Concentration at 90% Inhibition Fv
[11] = read-out: Concentration at 90% Inhibition Fv, Table 4b, 48 hours
[12] = read-out: Concentration at 90% Inhibition Fv, Table 4a, 48 hours

human (hACC2) ACC2, sequence (O00763 whole entry): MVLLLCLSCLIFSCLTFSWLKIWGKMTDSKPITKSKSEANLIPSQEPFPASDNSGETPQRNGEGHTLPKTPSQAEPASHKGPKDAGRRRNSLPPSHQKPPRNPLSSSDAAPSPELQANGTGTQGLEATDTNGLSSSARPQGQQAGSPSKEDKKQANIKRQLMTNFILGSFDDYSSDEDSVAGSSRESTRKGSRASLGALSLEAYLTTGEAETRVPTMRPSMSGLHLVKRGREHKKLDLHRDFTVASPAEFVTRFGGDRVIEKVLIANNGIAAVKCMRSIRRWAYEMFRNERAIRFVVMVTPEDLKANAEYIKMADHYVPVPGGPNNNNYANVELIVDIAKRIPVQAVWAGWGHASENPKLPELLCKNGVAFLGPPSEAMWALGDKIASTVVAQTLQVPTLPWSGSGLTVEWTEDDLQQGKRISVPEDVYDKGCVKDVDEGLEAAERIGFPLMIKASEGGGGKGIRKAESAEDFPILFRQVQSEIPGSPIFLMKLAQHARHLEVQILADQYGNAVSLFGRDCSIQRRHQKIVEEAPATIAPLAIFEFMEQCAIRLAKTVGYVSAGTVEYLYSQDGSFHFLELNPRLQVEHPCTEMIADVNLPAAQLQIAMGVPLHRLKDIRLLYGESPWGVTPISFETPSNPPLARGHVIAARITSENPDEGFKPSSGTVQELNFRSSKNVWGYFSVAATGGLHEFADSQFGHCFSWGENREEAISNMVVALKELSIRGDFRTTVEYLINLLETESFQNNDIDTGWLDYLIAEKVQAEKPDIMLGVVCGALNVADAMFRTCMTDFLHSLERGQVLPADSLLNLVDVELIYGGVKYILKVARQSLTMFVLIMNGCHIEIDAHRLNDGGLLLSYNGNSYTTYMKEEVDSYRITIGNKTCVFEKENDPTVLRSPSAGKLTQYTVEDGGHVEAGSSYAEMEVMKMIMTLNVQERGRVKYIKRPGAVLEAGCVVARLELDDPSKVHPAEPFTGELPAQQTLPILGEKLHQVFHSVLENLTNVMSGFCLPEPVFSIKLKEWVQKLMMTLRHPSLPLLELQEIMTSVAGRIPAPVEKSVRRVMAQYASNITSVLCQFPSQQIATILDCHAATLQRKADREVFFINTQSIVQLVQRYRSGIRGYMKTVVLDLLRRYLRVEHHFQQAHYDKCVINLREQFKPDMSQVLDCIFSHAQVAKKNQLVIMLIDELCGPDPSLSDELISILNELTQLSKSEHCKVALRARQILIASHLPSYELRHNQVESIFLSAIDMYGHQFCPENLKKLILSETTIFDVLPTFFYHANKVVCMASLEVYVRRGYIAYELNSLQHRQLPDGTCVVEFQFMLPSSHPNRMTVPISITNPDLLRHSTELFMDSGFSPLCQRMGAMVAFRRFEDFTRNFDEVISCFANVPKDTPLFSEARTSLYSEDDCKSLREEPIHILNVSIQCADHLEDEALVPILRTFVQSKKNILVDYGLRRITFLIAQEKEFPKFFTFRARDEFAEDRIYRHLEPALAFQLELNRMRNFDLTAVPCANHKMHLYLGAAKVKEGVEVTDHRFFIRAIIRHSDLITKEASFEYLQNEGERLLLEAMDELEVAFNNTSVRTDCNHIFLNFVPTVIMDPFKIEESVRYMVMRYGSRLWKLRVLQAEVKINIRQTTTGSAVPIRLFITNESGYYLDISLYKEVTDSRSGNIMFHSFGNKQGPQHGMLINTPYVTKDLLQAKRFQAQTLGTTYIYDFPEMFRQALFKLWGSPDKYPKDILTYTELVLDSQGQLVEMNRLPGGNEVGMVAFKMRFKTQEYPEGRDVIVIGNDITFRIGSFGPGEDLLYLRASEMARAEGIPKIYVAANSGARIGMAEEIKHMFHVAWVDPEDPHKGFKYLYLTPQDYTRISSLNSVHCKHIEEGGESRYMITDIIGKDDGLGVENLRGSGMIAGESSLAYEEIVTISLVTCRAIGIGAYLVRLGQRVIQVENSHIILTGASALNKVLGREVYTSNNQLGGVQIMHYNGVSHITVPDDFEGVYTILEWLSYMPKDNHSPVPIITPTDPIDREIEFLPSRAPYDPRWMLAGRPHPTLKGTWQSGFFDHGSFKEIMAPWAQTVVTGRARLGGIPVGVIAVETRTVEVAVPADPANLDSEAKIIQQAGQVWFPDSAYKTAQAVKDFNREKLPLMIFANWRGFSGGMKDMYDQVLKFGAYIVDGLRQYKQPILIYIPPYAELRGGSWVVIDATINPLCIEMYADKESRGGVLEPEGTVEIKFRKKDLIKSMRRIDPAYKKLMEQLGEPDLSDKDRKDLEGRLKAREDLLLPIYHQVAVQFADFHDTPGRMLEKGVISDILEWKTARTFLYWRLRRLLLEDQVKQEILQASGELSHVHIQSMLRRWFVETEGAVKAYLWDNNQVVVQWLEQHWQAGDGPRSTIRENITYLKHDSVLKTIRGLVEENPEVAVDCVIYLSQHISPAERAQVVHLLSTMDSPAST

| Compound | IC50 (human (hACC2) ACC2) [µM] | MIC (C. albicans ATCC 90028; [6]) [µg/mL] | MIC (C. krusei ATCC 6258; [7]) [µg/mL] | MIC [1, 8] [µg/mL] | IC90 (Botrtyis cinerea (Bc); Table 4a) [µg/mL] | IC90 (Botrtyis cinerea (Bc); Table 4b) [µg/mL] | IC90 ([2]; Table 4a) [µg/mL] | IC90 ([2]; Table 4b) [µg/mL] | IC90 (Diplodia maydis (Dm); Table 4a) [µg/mL] | IC90 (Diplodia maydis (Dm); Table 4b) [µg/mL] | IC90 ([3]; Table 4a, 48 hours) [µg/mL] | IC90 (Rhizoctonia solani (Rs); Table 4a) [µg/mL] | IC90 (Rhizoctonia solani (Rs); Table 4b) [µg/mL] | MIC (C. albicans ATCC 90028; ATCC90028, 48 h) [µg/mL] | MIC (C. krusei ATCC 6258; ATCC6258, 48 h) [µg/mL] | MIC ([1]; ATCC22019, 48 h) [µg/mL] | IC90 [3] [µg/mL] | IC90 [4, 11] [µg/mL] | IC90 ([5]; 48 h, Table 4b) [µg/mL] | IC90 (Septoria tritici (St); 48 h, Table 4b) [µg/mL] | also measured |
| --- | --- | --- | --- | --- | --- | --- | --- | --- | --- | --- | --- | --- | --- | --- | --- | --- | --- | --- | --- | --- | --- |
| COc1ccc(F)cc1[C@H](Cn1c(=O)n(C(C)(C)C(N)=O)c(=O)c2c(C)c(-n3cccn3)sc21)OC1CCC(=O)CC1 [Compound I-25, (R)-2-(1-(2-(5-fluoro-2-methoxyphenyl)-2-((4-oxocyclo-hexyl)oxy)ethyl)-5-methyl-2,4-dioxo-6-(1H-pyrazol-1-yl)-1,4-dihydro-thieno[2,3-d]pyrimidin-3(2H)-yl)-2-methylpropanamide] | 0.003 to 0.01 | 1.1 to 2 (≈ 1.84 to 3.35 µM) | 0.25 to 1 (≈ 0.418 to 1.67 µM) | 1.1 to 2 (≈ 1.84 to 3.35 µM) | > 50 | 10 (≈ 16.7 µM) | > 50 | > 50 | > 50 | > 50 | 10 (≈ 16.7 µM) | > 50 | > 50 | – | – | – | – | – | – | – | IC90 ([3]; Table 4b, 48 hours): 2 µg/mL (≈ 3.35 µM); IC90 [4, 9]: > 50 µg/mL; IC90 [4, 10]: > 50 µg/mL; IC90 ([5]; Table 4a, 48 hours): > 50 µg/mL; Concentration at 90% Inhibition Pc ([5]; Table 4b, 48 hours): D (“D” provided a compound concentration of >50 ppm at 90% inhibition of fungal pathogens); Concentration at 90% Inhibition St (Septoria tritici (St); Table 4b, 48 hours): D (“D” provided a compound concentration of >50 ppm at 90% inhibition of fungal pathogens); IC90 (Septoria tritici (St); Table 4a, 48 hours): > 50 µg/mL |
| COc1ccc(F)cc1[C@@H](O)Cn1c(=O)n(C(C)(C)C(=O)NC(C)C)c(=O)c2c(C)c(-n3cccn3)sc21 [Compound I-86, (R)-2-(1-(2-(5-fluoro-2-methoxyphenyl)-2-hydroxyethyl)-5-methyl-2,4-dioxo-6-(1H-pyrazol-1-yl)-1,4-dihydrothieno[2,3-d]pyrimidin-3(2H)-yl)-N-isopropyl-2-methylpropanamide] | 0.003 to 0.01 | – | – | – | – | 2 (≈ 3.68 µM) | – | 2 (≈ 3.68 µM) | – | 10 (≈ 18.4 µM) | – | – | 0.4 (≈ 0.736 µM) | 1.1 to 2 (≈ 2.02 to 3.68 µM) | 1.1 to 2 (≈ 2.02 to 3.68 µM) | 0.25 to 1 (≈ 0.46 to 1.84 µM) | 0.4 (≈ 0.736 µM) | 0.4 (≈ 0.736 µM) | > 50 | > 50 | – |
| COc1ccc(F)cc1[C@H](Cn1c(=O)n(C(C)(C)C(=O)N2CCCC2)c(=O)c2c(C)c(-n3cccn3)sc21)OC1CCOCC1 [Compound I-7, (R)-1-(2-(5-fluoro-2-methoxyphenyl)-2-((tetrahydro-2H-pyran-4-yl)oxy)ethyl)-5-methyl-3-(2-methyl-1-oxo-1-(pyrrolidin-1-yl)propan-2-yl)-6-(1H-pyrazol-1-yl)thieno[2,3-d]pyrimidine-2,4(1H,3H)-dione] | 0.003 to 0.01 | 1.1 to 2 (≈ 1.72 to 3.13 µM) | 0.25 to 1 (≈ 0.391 to 1.56 µM) | 1.1 to 2 (≈ 1.72 to 3.13 µM) | 2 (≈ 3.13 µM) | 2 (≈ 3.13 µM) | 0.4 (≈ 0.625 µM) | 0.4 (≈ 0.625 µM) | 10 (≈ 15.6 µM) | 2 (≈ 3.13 µM) | 0.08 (≈ 0.125 µM) | 2 (≈ 3.13 µM) | 2 (≈ 3.13 µM) | – | – | – | – | – | – | – | IC90 ([3]; Table 4b, 48 hours): 0.08 µg/mL (≈ 0.125 µM); IC90 [4, 9]: > 50 µg/mL; IC90 [4, 10]: 10 µg/mL (≈ 15.6 µM); IC90 ([5]; Table 4a, 48 hours): > 50 µg/mL; Concentration at 90% Inhibition Pc ([5]; Table 4b, 48 hours): D (“D” provided a compound concentration of >50 ppm at 90% inhibition of fungal pathogens); Concentration at 90% Inhibition St (Septoria tritici (St); Table 4b, 48 hours): D (“D” provided a compound concentration of >50 ppm at 90% inhibition of fungal pathogens); IC90 (Septoria tritici (St); Table 4a, 48 hours): > 50 µg/mL |
| COc1ccc(F)cc1[C@H](Cn1c(=O)n(C(C)(C)C(=O)NC(C)C)c(=O)c2c(C)c(-n3cccn3)sc21)OC1CCOCC1 [Compound I-6, (R)-2-(1-(2-(5-fluoro-2-methoxyphenyl)-2-((tetrahydro-2H-pyran-4-yl)oxy)ethyl)-5-methyl-2,4-dioxo-6-(1H-pyrazol-1-yl)-1,4-dihydrothieno[2,3-d]pyrimidin-3(2H)-yl)-N-isopropyl-2-methylpropanamide] | 0.01 to 0.04 | – | – | – | 2 (≈ 3.19 µM) | 2 (≈ 3.19 µM) | 10 (≈ 15.9 µM) | 2 (≈ 3.19 µM) | 10 (≈ 15.9 µM) | 2 (≈ 3.19 µM) | – | > 50 | 10 (≈ 15.9 µM) | 0.25 to 1 (≈ 0.398 to 1.59 µM) | 0.25 to 1 (≈ 0.398 to 1.59 µM) | 1.1 to 2 (≈ 1.75 to 3.19 µM) | 0.4 (≈ 0.637 µM) | 2 (≈ 3.19 µM) | > 50 | > 50 | Concentration at 90% Inhibition Fm ([3]; Table 4b, 48 hours): A (“A” provided a compound concentration of 0.4 ppm at 90% inhibition of fungal pathogens); IC90 [4, 12]: 2 µg/mL (≈ 3.19 µM); IC90 ([5]; 48 h, Table 4a): > 50 µg/mL; IC90 (Septoria tritici (St); 48 h, Table 4a): > 50 µg/mL |
| COc1ccc(F)cc1[C@H](Cn1c(=O)n(C(C)(C)C(=O)N2CCCCC2)c(=O)c2c(C)c(-n3cccn3)sc21)OC1CCOCC1 [Compound I-8, (R)-1-(2-(5-fluoro-2-methoxyphenyl)-2-((tetrahydro-2H-pyran-4-yl)oxy)ethyl)-5-methyl-3-(2-methyl-1-oxo-1-(piperidin-1-yl)propan-2-yl)-6-(1H-pyrazol-1-yl)thieno[2,3-d]pyrimidine-2,4(1H,3H)-dione] | 0.01 to 0.04 | – | – | – | 2 (≈ 3.06 µM) | 2 (≈ 3.06 µM) | 2 (≈ 3.06 µM) | 2 (≈ 3.06 µM) | 10 (≈ 15.3 µM) | 2 (≈ 3.06 µM) | – | > 50 | 10 (≈ 15.3 µM) | 0.25 to 1 (≈ 0.382 to 1.53 µM) | 0.25 to 1 (≈ 0.382 to 1.53 µM) | 0.25 to 1 (≈ 0.382 to 1.53 µM) | 0.08 (≈ 0.122 µM) | 2 (≈ 3.06 µM) | > 50 | > 50 | Concentration at 90% Inhibition Fm ([3]; Table 4b, 48 hours): AA (“AA” provided a compound concentration of 0.08 ppm at 90% inhibition of fungal pathogens); IC90 [4, 12]: 2 µg/mL (≈ 3.06 µM); IC90 ([5]; 48 h, Table 4a): > 50 µg/mL; IC90 (Septoria tritici (St); 48 h, Table 4a): > 50 µg/mL |
